Results published in patent publication US5366982A (priority 1990, dated 1994).

Experiments:
[1] = tested on: guinea-pig pulmonary parenchyma; assay: L. Parenchyma: guinea-pig pulmonary parenchyma contraction antagonism induced by LTB4 (Sirois); type: cell-based; conditions: Cavia porcellus; Table XIX; guinea-pig pulmonary parenchyma contraction induced by LTB4; read-out: IC50 L. Parenchyma
Protocol: Further, compounds of this invention are shown to be leukotriene B4 antagonists in the technique of guinea-pig pulmonary parenchyma contraction antagonism induced by LTB4 described by P. Sirois et al., Pharmacology, 31, 225-236 (1985). In this technique, products are active at concentrations of between about 1 to about 10,000 nM.

leukotriene B4 receptors = leukotriene B4 receptors (Cavia porcellus, UniProt H0VYV8); assay: biochemical; type: binding, guinea-pig; conditions: Table XIX; guinea-pig spleen membranes, tritium-labelled LTB4; read-out: IC50 Binding (Cheng)
Sequence of leukotriene B4 receptors (H0VYV8 1-348): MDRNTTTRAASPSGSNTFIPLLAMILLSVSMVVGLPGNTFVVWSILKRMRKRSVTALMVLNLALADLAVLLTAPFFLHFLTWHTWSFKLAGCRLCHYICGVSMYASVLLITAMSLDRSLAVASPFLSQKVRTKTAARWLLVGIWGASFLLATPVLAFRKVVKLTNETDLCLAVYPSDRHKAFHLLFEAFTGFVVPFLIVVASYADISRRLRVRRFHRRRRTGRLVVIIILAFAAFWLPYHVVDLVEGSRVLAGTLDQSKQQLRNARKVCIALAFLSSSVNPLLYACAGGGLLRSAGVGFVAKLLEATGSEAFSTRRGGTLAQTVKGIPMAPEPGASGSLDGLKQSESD

| SMILES | IC50 [1] | IC50 (leukotriene B4 receptors) |
| --- | --- | --- |
| CC(C)(CCCCOc1cc(-c2ccccc2)cc(-c2cccs2)n1)C(=O)O [2,2-dimethyl-6-{[4-phenyl-6-(2-thienyl)-2-pyridyl]oxy}hexanoic acid] | 1000 nM | 15 nM |
| CC(C)(CCCCOc1cc(-c2ccccc2)cc(-c2ccsc2)n1)C(=O)O [2,2-dimethyl-6-{[4-phenyl-6-(3-thienyl)-2-pyridyl]oxy}hexanoic acid] | 100 nM | 5 nM |
| CC(C)(CCCCOc1cc(-c2ccccc2)cc(-c2ccccc2F)n1)C(=O)O [2,2-dimethyl-6-{[6-(2-fluorophenyl)-4-phenyl-2-pyridyl]oxy}hexanoic acid] | 80 nM | 5 nM |
| CCC(C)(CCCCOc1cc(-c2ccccc2)cc(-c2ccccc2)n1)C(=O)O (centres unmarked) [2-ethyl-2-methyl-6-[(4,6-diphenyl-2-pyridyl)oxy]hexanoic acid] | 30 nM | 17 nM |
| CCC(CCCCOc1cc(-c2ccccc2)cc(-c2ccccc2)n1)C(=O)O (centres unmarked) [2-ethyl-6-[(4,6-diphenyl-2-pyridyl)oxy]hexanoic acid] | 70 nM | 3 nM |
| CC(CCCCOc1cc(-c2ccccc2)cc(-c2ccccc2)n1)C(=O)O (centres unmarked) [2-methyl-6-[(4,6-diphenyl-2-pyridyl)oxy]hexanoic acid] | 10 nM | 4 nM |
| CC(CCCCOc1cc(-c2ccc3c(c2)OCO3)cc(-c2ccccc2)n1)C(=O)O (centres unmarked) [2-methyl-6-{[4-(3,4-methylenedioxyphenyl)-6-phenyl-2-pyridyl]oxy}hexanoic acid] | 2.5 nM | 7 nM |
| CC(CCCCOc1cc(-c2ccc(F)cc2)cc(-c2ccccc2)n1)C(=O)O (centres unmarked) [2-methyl-6-{[4-(4-fluorophenyl)-6-phenyl-2-pyridyl]oxy}hexanoic acid] | 60 nM | 1.7 nM |
| CC(CCCCOc1cc(-c2ccccc2)cc(-c2ccccc2F)n1)C(=O)O (centres unmarked) [2-methyl-6-{[6-(2-fluorophenyl)-4-phenyl-2-pyridyl]oxy}hexanoic acid] | 6 nM | 4 nM |
| O=C(O)c1ccc(COc2cc(-c3ccccc3)cc(-c3ccccc3)n2)cc1 [4-[(4,6-diphenyl-2-pyridyl)oxymethyl]benzoic acid] | 10000 nM | 350 nM |
| O=C(O)CCCCOc1cc(-c2ccccc2)cc(-c2ccccc2)n1 [5-[(4,6-diphenyl-2-pyridyl)oxy]pentanoic acid] | 2000 nM | 50 nM |
| CC(C)(CCCCOc1cc(-c2ccccc2)cc(-c2ccccc2)n1)c1nnn[nH]1 [5-{1,1-dimethyl-5-[(4,6-diphenyl-2-pyridyl)oxy]pentyl}-[1H]-tetrazole] | 20 nM | 7 nM |
| NC(=O)CCCCCOc1cc(-c2ccccc2)cc(-c2ccccc2)n1 [6-[(4,6-diphenyl-2-pyridyl)oxy]hexanamide] | > 1000 nM | 160 nM |

Other lines, results leading:

| IC50 [1] | IC50 (leukotriene B4 receptors) | SMILES |
| --- | --- | --- |
| 300 nM | 3 nM | O=C(O)CCCCCOc1cc(-c2ccccc2)cc(-c2ccccc2)n1 [6-[(4,6-diphenyl-2-pyridyl)oxy]hexanoic acid] |
| 1000 nM | 10 nM | CC(C)(CCCCOc1nc(-c2ccccc2)cc(-c2ccccc2)n1)C(=O)O [6-[(4,6-diphenyl-2-pyrimidyl)oxy]-2,2-dimethylhexanoic acid] |
| 3000 nM | 40 nM | CC(C)(CCCCOc1cc(-c2ccccc2)ccn1)C(=O)O [6-[(4-phenyl-2-pyridyl)oxy]-2,2-dimethylhexanoic acid] |
| 1000 nM | 40 nM | CC(C)(CCCCOc1cc(-c2ccccc2)cc(C(C)(C)C)n1)C(=O)O [6-[(6-ter-butyl-4-phenyl-2-pyridyl)oxy]-2,2-dimethylhexanoic acid] |
| 2000 nM | 300 nM | CC(C)(C)c1cc(-c2ccccc2)cc(OCCCCCC(=O)O)n1 [6-[(6-ter-butyl-5-phenyl-2-pyridyl)oxy]hexanoic acid] |
| 5 nM | 1 nM | O=C(O)CCCCCOc1cc(-c2ccc3c(c2)OCO3)cc(-c2ccccc2)n1 [6-{[4-(3,4-methylenedioxyphenyl)-6-phenyl-2-pyridyl]oxy}hexanoic acid] |
